18 compounds from ChEMBL document CHEMBL1152546, “N-[2-chloro-9H-purin-6-yl]-N-cyclopropylglycylamino acids and derivatives: synthesis, evaluation as a class of novel analgesics, and 3D QSAR analysis” (2009) can be followed below.

Test [1] concerns Mus musculus. Kind of test: Analgesic activity in ICR mouse assessed as pain threshold variation at 6.25 umol/kg, po administered as single dose measured after 180 mins by tail flick test relative to control. Format: functional.
Test [2] relates to Mus musculus. Nature of the test: Analgesic activity in ICR mouse assessed as pain threshold variation at 25 umol/kg, po administered as single dose measured after 60 mins by tail flick test relative to control. Format: functional.
The subject of test [3] is Mus musculus. Kind of test: Analgesic activity in ICR mouse assessed as pain threshold variation at 6.25 umol/kg, po administered as single dose measured after 120 mins by tail flick test relative to control. Format: functional.
Test [4] concerns Mus musculus. Kind of test: Analgesic activity in ICR mouse assessed as pain threshold variation at 25 umol/kg, po administered as single dose measured after 30 mins by tail flick test relative to control. Format: functional. (In general: Thermal pain tests record how soon the animal reacts.)
The subject of test [5] is Mus musculus. Kind of test: Analgesic activity in ICR mouse assessed as pain threshold variation at 12.5 umol/kg, po administered as single dose measured after 90 mins by tail flick test relative to control. Format: functional.
For test [6], the system named is Mus musculus. Kind of test: Analgesic activity in ICR mouse assessed as pain threshold variation at 25 umol/kg, po administered as single dose measured after 120 mins by tail flick test relative to control. Format: functional.
Test [7] has as its system Mus musculus. Nature of the test: Analgesic activity in po dosed ICR mouse assessed as pain threshold variation administered as single dose measured after 30 to 180 mins by tail flick test. Format: functional, organism-based.
Test [8] concerns Mus musculus. Nature of the test: Analgesic activity in ICR mouse assessed as pain threshold variation at 6.25 umol/kg, po administered as single dose measured after 30 mins by tail flick test relative to control. Format: functional.
Test [9] concerns Mus musculus. Nature of the test: Analgesic activity in ICR mouse assessed as pain threshold variation at 12.5 umol/kg, po administered as single dose measured after 150 mins by tail flick test relative to control. Format: functional.
Test [10] deals with Mus musculus. Kind of test: Analgesic activity in ICR mouse assessed as pain threshold variation at 12.5 umol/kg, po administered as single dose measured after 120 mins by tail flick test relative to control. Format: functional.
For test [11], the system named is Mus musculus. Kind of test: Analgesic activity in ICR mouse assessed as pain threshold variation at 25 umol/kg, po administered as single dose measured after 90 mins by tail flick test relative to control. Format: functional.
Test [12] deals with Mus musculus. Kind of test: Analgesic activity in ICR mouse assessed as pain threshold variation at 25 umol/kg, po administered as single dose measured after 180 mins by tail flick test relative to control. Format: functional.
Test [13] relates to Mus musculus. Nature of the test: Analgesic activity in ICR mouse assessed as pain threshold variation at 12.5 umol/kg, po administered as single dose measured after 30 mins by tail flick test relative to control. Format: functional.
Test [14] relates to Mus musculus. Nature of the test: Analgesic activity in ICR mouse assessed as pain threshold variation at 6.25 umol/kg, po administered as single dose measured after 150 mins by tail flick test relative to control. Format: functional.
In test [15] the test system is Mus musculus. Nature of the test: Analgesic activity in ICR mouse assessed as pain threshold variation at 6.25 umol/kg, po administered as single dose measured after 60 mins by tail flick test relative to control. Format: functional.
The test system of test [16] is Mus musculus. Kind of test: Analgesic activity in ICR mouse assessed as pain threshold variation at 12.5 umol/kg, po administered as single dose measured after 60 mins by tail flick test relative to control. Format: functional.
Test [17] concerns Mus musculus. Kind of test: Analgesic activity in ICR mouse assessed as pain threshold variation at 25 umol/kg, po administered as single dose measured after 150 mins by tail flick test relative to control. Format: functional.
The subject of test [18] is Mus musculus. Nature of the test: Analgesic activity in ICR mouse assessed as pain threshold variation at 6.25 umol/kg, po administered as single dose measured after 90 mins by tail flick test relative to control. Format: functional.
For test [19], the system named is Mus musculus. Kind of test: Analgesic activity in ICR mouse assessed as pain threshold variation at 12.5 umol/kg, po administered as single dose measured after 180 mins by tail flick test relative to control. Format: functional.

Regarding `NCCCC[C@H](NC(=O)CN(c1nc(Cl)nc2[nH]cnc12)C1CC1)C(=O)O`, the Activity in [1] is 2.61%; in test [2] it was 53.76%; in [3] it was 7.05%; in test [4], 31.18%; in test [5] it was 22.04%; in [6], 16.37%. In addition, the Activity result is “Dose-dependent effect” in test [7]; 8.04% in test [8]; 7.39% in [9]; 9.79% in [10]; 28.84% in [11]; 6.07% in test [12]. The Activity in test [13] came out at 16.33%; in test [14], 2.82%; in test [15], 16.6%; in [16], 31.34%; in test [17], 11.64%; in test [18] it was 14.48%. Moreover, in test [19], the Activity was found to be 2.99%.

Turning to `CC(C)[C@H](NC(=O)CN(c1nc(Cl)nc2[nH]cnc12)C1CC1)C(=O)OCc1ccccc1`, the Activity amounted to 3.22% in [1]; 55.49% in test [2]; 9.26% in test [3]; 33.43% in test [4]; 23.59% in test [5]; 27.33% in test [6]. For the same compound, the Activity entry is “Dose-dependent effect” in test [7]; 7.69% in test [8]; 5.43% in test [9]; 14.96% in test [10]; 51.32% in [11]; 12.93% in test [12]. In addition, the Activity stood at 15.95% in [13]; 3.07% in test [14]; 13.94% in test [15]; 26.47% in test [16]; 17.91% in [17]; 11.83% in [18]. Moreover, the Activity in test [19] is 4.58%.

Take `C[C@@H](O)[C@H](NC(=O)CN(c1nc(Cl)nc2[nH]cnc12)C1CC1)C(=O)OCc1ccccc1`: the Activity in test [2] turned out to be 29.7%; in [4], 21.86%; in test [6], 30.7%; in test [11] it was 29.88%; in test [12] it was 6.29%; in test [17], 12.76%.

In the case of `C[C@H](NC(=O)CN(c1nc(Cl)nc2[nH]cnc12)C1CC1)C(=O)O`, the Activity in [2] turned out to be 44.64%; in test [4], 48.1%; in test [6] it was 28.41%; in [11], 43.53%; in [12], 6.68%; in test [17], 14.68%.

Regarding `O=C(O)C[C@H](NC(=O)CN(c1nc(Cl)nc2[nH]cnc12)C1CC1)C(=O)O`, the Activity amounted to 38.9% in [2]; 19.85% in test [4]; 21.95% in [6]; 25.14% in [11]; 3.17% in [12]; 11.63% in test [17].

Turning to `O=C(OCc1ccccc1)[C@@H]1CCCN1C(=O)CN(c1ncnc2c1ncn2C1CCCCO1)C1CC1` (some centres not stated), the Activity in [2] worked out at 36.73%; in [4], 32.25%; in [6] it was 17.49%; in test [11], 23.31%; in test [12], 6.63%; in test [17] it was 7.85%.

`C[C@@H](O)[C@H](NC(=O)CN(c1nc(Cl)nc2[nH]cnc12)C1CC1)C(=O)O`: the Activity was 30.07% in test [2]; 18.59% in test [4]; 37.59% in [6]; 35.87% in test [11]; 4.69% in test [12]; 24.02% in [17].

In the case of `CC(C)(C)OC(=O)NCCCC[C@H](NC(=O)CN(c1ncnc2c1ncn2C1CCCCO1)C1CC1)C(=O)OCc1ccccc1` (some centres not stated), the Activity in [2] is on record as 32.66%; in [4] it was 18.33%; in test [6], 28.39%; in [11] it was 32.85%; in test [12] it was 10.06%; in test [17], 17.2%.

Consider `O=C(CN(c1nc(Cl)nc2[nH]cnc12)C1CC1)NCC(=O)OCc1ccccc1`, for which the Activity in test [1] is recorded as 2.64%; in test [2], 41.91%; in test [3], 8.04%; in [4], 18.65%; in test [5], 19%; in [6] it was 21.69%. For the same compound, the Activity entry was “Dose-dependent effect” in [7]; 5.73% in test [8]; 6.2% in test [9]; 14.62% in test [10]; 27.18% in test [11]; 8.31% in [12]. Besides, the Activity is 11.25% in test [13]; 3.47% in test [14]; 13.19% in [15]; 23.74% in test [16]; 17.99% in test [17]; 9.93% in [18]. For the same compound, the Activity in test [19] was 5.45%.

As to `O=C(CN(c1nc(Cl)nc2[nH]cnc12)C1CC1)N[C@@H](Cc1ccccc1)C(=O)O`, the Activity came to 32.02% in [2]; 29.37% in test [4]; 8.84% in test [6]; 26.55% in [11]; 4.19% in test [12]; 6.09% in [17].

With `O=C(CN(c1ncnc2c1ncn2C1CCCCO1)C1CC1)N[C@@H](CC(=O)OCc1ccccc1)C(=O)OCc1ccccc1` (some centres not stated), the Activity in test [2] is 38.15%; in test [4], 31.81%; in [6], 7.82%; in test [11], 25.07%; in test [12], 0.03%; in [17], 0.06%.

Regarding `O=C(CN(c1ncnc2c1ncn2C1CCCCO1)C1CC1)N[C@@H](Cc1c[nH]c2ccccc12)C(=O)OCc1ccccc1` (some centres not stated), the Activity in [2] stood at 51.9%; in [4] it was 43.53%; in test [6], 22.58%; in test [11], 38.93%; in test [12] it was 5.15%; in [17], 11.45%.

In the case of `O=C(CN(c1ncnc2c1ncn2C1CCCCO1)C1CC1)NCC(=O)OCc1ccccc1` (configuration not stated), the Activity came to 40.44% in test [2]; 55.72% in test [4]; 17.23% in test [6]; 25.94% in test [11]; 0.06% in [12]; 7.26% in [17].

Regarding `O=C(CN(c1nc(Cl)nc2[nH]cnc12)C1CC1)N[C@@H](CCC(=O)OCc1ccccc1)C(=O)OCc1ccccc1`, the Activity turned out to be 53.74% in test [2]; 52.8% in [4]; 45.94% in [6]; 50% in test [11]; 29.87% in test [12]; 44.46% in test [17].

As for `O=C(CN(c1nc(Cl)nc2[nH]cnc12)C1CC1)N[C@@H](Cc1c[nH]c2ccccc12)C(=O)OCc1ccccc1`, the Activity in test [2] came to 42.24%; in [4], 30.67%; in [6], 21.51%; in test [11], 40.71%; in [12] it was 7.78%; in test [17] it was 10.71%.

On to `CCOC(=O)CN(c1nc(Cl)nc2c1ncn2C1CCCCO1)C1CC1` (configuration not stated), for which the Activity was 22.64% in [2]; 9.92% in test [4]; 14.91% in [6]; 13.04% in test [11]; 5.33% in [12]; 11.85% in test [17].

`O=C(CN(c1nc(Cl)nc2[nH]cnc12)C1CC1)N[C@@H](CO)C(=O)O`: the Activity in test [2] came to 39.76%; in [4], 38.65%; in [6], 39%; in test [11], 43.9%; in test [12], 12.32%; in [17], 18.83%.

Turning to `O=C(O)[C@@H]1CCCN1C(=O)CN(c1nc(Cl)nc2[nH]cnc12)C1CC1`, the Activity in test [2] was found to be 34.94%; in test [4], 31.47%; in test [6] it was 23.61%; in [11], 25.99%; in test [12], 6.67%; in [17], 7.29%.
